Measurements reported in US11109593B2, “Isoxazolin-5-one derivative and herbicide containing same as active ingredient” (HOKKO CHEMICAL INDUSTRY CO., LTD., priority 2017, dated 2021).

Legend:
Format in all cases: in vivo
Echinochloa crus-galli [1] = test: Test Example 1: herbicidal effect test by treatment of rice paddy soil (immediately after seeding); settings: 120 g/10a active ingredient, dry weight vs untreated area, 14 days after treatment
Method in brief: (§1)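 Puddled, fertilized (N:P:K=17:17:17) paddy soil in Wagner pots; seeds sown 0–1 cm deep, flooded to about 3 cm. Emulsifiable formulations diluted in water and dropped into the water immediately after seeding at 120 g active ingredient per 10 ares; greenhouse. Herbicidal rate from dry weight vs untreated at 14 days.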

Scirpus juncoides [2] = test: as above; settings: 120 g/10a active ingredient, dry weight vs untreated area, 14 days after treatment
Method in brief: as §1

[3] = tested on: broad leaf weeds (Lindernia pyxidaria and Monochoria vaginalis); test: as above; settings: 120 g/10a active ingredient, dry weight vs untreated area, 14 days after treatment
Method in brief: as §1

Echinochloa crus-galli [4] = test: Test Example 3: herbicidal effect test by treatment of dry field farming soil (one day after seeding); settings: 120 g/10a active ingredient, evaluated 14 days after treatment
Method in brief: (§2)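 Compound emulsions are sprayed on the soil surface one day after sowing (120 g a.i. per 10 ares) before weeds emerge. Effect is expressed as percent dry-weight reduction versus untreated controls 14 days post-treatment.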

southern crabgrass [5] = test: as above; settings: 120 g/10a active ingredient, evaluated 14 days after treatment
Method in brief: as §2

Amaranthus viridis [6] = test: as above; settings: 120 g/10a active ingredient, evaluated 14 days after treatment
Method in brief: as §2

Chenopodium album [7] = test: as above; settings: 120 g/10a active ingredient, evaluated 14 days after treatment
Method in brief: as §2

Echinochloa crus-galli [8] = test: Test Example 4: herbicidal effect test by treatment of leave and stem in dry field farming (seven days after seeding); settings: 120 g/10a active ingredient; emulsion sprayed seven days after seeding; evaluated 14 days after treatment
Method in brief: (§3)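 Weeds were seeded at 20 seeds per species into the top 1 cm of alluvial upland soil in pots, then sprayed 7 days after seeding with water-diluted emulsifiable concentrate at 100 L/10 a, giving 120 g active ingredient/10 a. Duplicate pots; herbicidal rate (%) was 14 days post-treatment, from dry weight versus untreated.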

southern crabgrass [9] = test: as above; settings: 120 g/10a active ingredient; emulsion sprayed seven days after seeding; evaluated 14 days after treatment
Method in brief: as §3

Amaranthus viridis [10] = test: as above; settings: 120 g/10a active ingredient; emulsion sprayed seven days after seeding; evaluated 14 days after treatment
Method in brief: as §3

Chenopodium album [11] = test: as above; settings: 120 g/10a active ingredient; emulsion sprayed seven days after seeding; evaluated 14 days after treatment
Method in brief: as §3

Echinochloa crus-galli [12] = test: Test Example 2: herbicidal effect test by treatment during growing period in paddy rice cultivation (seven days after seeding); settings: 120 g/10a active ingredient, assessed 14 days after treatment, dry weight vs untreated area
Method in brief: (§4)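 Greenhouse flooded-pot test, seeds sown in puddled paddy soil; emulsion applied into water 7 d after seeding, 120 g a.i./10 a. Dry-weight-based herbicidal rate at 14 d, n=2.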

Scirpus juncoides [13] = test: as above; settings: 120 g/10a active ingredient, assessed 14 days after treatment, dry weight vs untreated area
Method in brief: as §4

[14] = tested on: broad leaf weeds (Lindernia pyxidaria and Monochoria vaginalis); test: as above; settings: 120 g/10a active ingredient, assessed 14 days after treatment, dry weight vs untreated area
Method in brief: as §4

Row | SMILES | Herbicidal rate (%) Echinochloa crus-galli (Echinochloa crus-galli [1]) | Herbicidal rate (%) Scirpus juncoides (Scirpus juncoides [2]) | Herbicidal rate (%) Lindernia pyxidaria [3] | Herbicidal rate (%) Monochoria vaginalis [3] | herbicidal rate, Echinochloa crus-galli (Echinochloa crus-galli [4]) | herbicidal rate, southern crabgrass (southern crabgrass [5]) | herbicidal rate, Amaranthus viridis (Amaranthus viridis [6]) | herbicidal rate, Chenopodium album (Chenopodium album [7]) | herbicidal effect (herbicidal rate), Echinochloa crus-galli (Echinochloa crus-galli [8]) | herbicidal effect (herbicidal rate), southern crabgrass (southern crabgrass [9]) | herbicidal effect (herbicidal rate), Amaranthus viridis (Amaranthus viridis [10]) | herbicidal effect (herbicidal rate), Chenopodium album (Chenopodium album [11]) | Herbicidal rate (%) Echinochloa crus-galli (Echinochloa crus-galli [12]) | Herbicidal rate (%) Scirpus juncoides (Scirpus juncoides [13]) | Herbicidal rate (%) Lindernia pyxidaria [14] | Herbicidal rate (%) Monochoria vaginalis [14]
1 | CCCCC(CC)Cn1oc(=O)c(Cc2ccccc2N(S(=O)(=O)C(F)(F)F)S(=O)(=O)C(F)(F)F)c1C (stereo not drawn) [Compound 1-980] | 100% | 90% | 100% | 80% | 40% | 60% | 40% | 40% | 60% | 40% | 40% | 40% | 100% | 80% | 80% | 80%
2 | Cc1c(Cc2ccccc2N(C(=O)OCC(C)C)S(=O)(=O)C(F)(F)F)c(=O)on1C(C)(C)C [Compound 1-668] | 90% | 90% | 90% | 90% | 90% | 90% | 90% | 90% | 90% | 90% | 40% | 40% | 90% | 90% | 90% | 90%
3 | Cc1c(Cc2ccccc2NS(=O)(=O)C(F)(F)F)c(=O)on1C(C)Cc1ccccc1 (stereo not drawn) [Compound 1-218] | 100% | 90% | 90% | 90% | 80% | 40% | 40% | 40% | 90% | 40% | 60% | 40% | 90% | 90% | 40% | 80%
4 | Cc1c(Cc2ccccc2N(C(=O)CC(C)C)S(=O)(=O)C(F)(F)F)c(=O)on1CC(C)(C)C [Compound 1-355] | 90% | 90% | 90% | 90% | 90% | 90% | 90% | 90% | 90% | 90% | 40% | 40% | 90% | 90% | 90% | 90%
5 | CSCCn1oc(=O)c(Cc2ccccc2N(S(C)(=O)=O)S(=O)(=O)C(F)(F)F)c1C [Compound 1-900] | 90% | 90% | 90% | 90% | 90% | 90% | 90% | 90% | 90% | 90% | 40% | 40% | 90% | 90% | 90% | 90%
6 | Cc1c(Cc2ccccc2N(S(=O)(=O)C(F)(F)F)S(=O)(=O)C(F)(F)F)c(=O)on1CCS(C)(=O)=O [Compound 1-1006] | 70% | 90% | 70% | 60% | 80% | 60% | 60% | 60% | 40% | 40% | 40% | 40% | 80% | 90% | 60% | 80%
7 | COC(=O)N(c1ccccc1Cc1c(C)n(C(C)c2ccccc2)oc1=O)S(=O)(=O)C(F)(F)F (stereo not drawn) [Compound 1-598] | 90% | 90% | 90% | 90% | 90% | 90% | 90% | 90% | 90% | 90% | 40% | 40% | 90% | 90% | 90% | 90%
8 | CCCC(C)n1oc(=O)c(Cc2ccccc2N(C(=O)C(C)C)S(=O)(=O)C(F)(F)F)c1C (stereo not drawn) [Compound 1-334] | 100% | 90% | 70% | 80% | 90% | 70% | 50% | 40% | 90% | 90% | 60% | 60% | 100% | 90% | 70% | 70%
9 | CCCCC(CC)Cn1oc(=O)c(Cc2ccccc2NS(=O)(=O)C(F)(F)F)c1C (stereo not drawn) [Compound 1-130] | 100% | 100% | 100% | 100% | 90% | 70% | 40% | 50% | 60% | 60% | 50% | 40% | 100% | 80% | 90% | 90%
